Patent publication US20140107109A1, “AMINO-DIHYDROTHIAZINE AND AMINO-DIOXIDO DIHYDROTHIAZINE COMPOUNDS AS BETA-SECRETASE ANTAGONISTS AND METHODS OF USE” (Amgen Inc., priority 2012, published 2014)
Like-named read-outs stand apart in the source and are kept apart here.

How the values were obtained:
[1] = system: Aβ40 in conditioned medium of cells stably expressing Amyloid Precursor Protein (APP); assay: In vitro BACE cell-based assay (HEK cell assay), Aβ40 sandwich ELISA
In short: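 Aβ40 in conditioned medium was quantified by time-resolved fluorescence sandwich ELISA (pAb40 capture 3 h at 4 °C, biotin-6E10 detection 2 h at 4 °C) after 24 h compound exposure of APP-expressing cells. Doses spanned 10 points from 100 μM or 10 μM top, 0.1% DMSO; IC50 was derived from percent of control.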

[2] = system: Abeta 40 in cerebrospinal fluid (CSF) and brain; assay: In vivo inhibition of beta-secretase: Abeta 40 reduction in CSF and brain of the rat; conditions: 10 mpk (unless otherwise noted), after 4 hrs
Source text: In Vivo Inhibition of Beta-Secretase
Several animal models, including mouse, rat, dog, and monkey, may be used to screen for inhibition of beta-secretase activity in vivo following administration of a test compound sample. Animals used in this invention can be wild type, transgenic, or gene knockout animals. […] One to twenty-four hours following the administration of compound, animals are sacrificed, and brains as well as cerebrospinal fluid (CSF) and plasma are removed for analysis of A-beta levels and drug or test compound concentrations (Dovey et al., 2001, Journal of Neurochemistry, 76, 173-181) Beginning at time 0, animals are administered by oral gavage, or other means of delivery such as intravenous injection, an inhibitory test compound of up to 100 mg/kg in a standard, conventional formulation, such as 2% hydroxypropyl methylcellulose, 1% Tween80. A separate group of animals receive 2% hydroxypropyl methylcellulose, 1% Tween80 alone, containing no test compound, and serve as a vehicle-control group. […] CSF or brain supernatants are then analyzed for the presence of A-beta peptide by specific sandwich ELISA assays based on ECL (Electrochemiluminescence) technology. For example, rat Abeta40 is measured using biotinylated-4G8 (Signet) as a capture antibody and Fab40 (an in-house antibody specific to the C-terminal of Abeta40) as a detection antibody.

Cathepsin D (Cat D) = molecular target: T1, Cathepsin D (Cat D) (Homo sapiens, UniProt P07339); assay: In vitro enzymatic Cathepsin D (Cat D) FRET assay; type: biochemical; conditions: read-out: CatD IC50
T1 construct: Recombinant Cat D was expressed in CHO cells; made in house; host or cells: CHO cells
In short: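 FRET read-out: a fluorophore/quencher-labelled peptide substrate is cleaved by 9 nM Cat D (recombinant, CHO-expressed) following a one-hour preincubation with inhibitor dilutions in DMSO. Tris buffer added to neutralize pH ends the reaction before fluorescence measurement.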

[3] = molecular target: Beta Secretase enzyme (BACE1) (Homo sapiens, UniProt P56817); assay: In vitro enzymatic BACE FRET assay; type: biochemical; conditions: read-out: BACE1 FRET assay IC50
In short: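 Readout: dequenched fluorescence (ex 488 nm/[…]) after neutralizing with Tris buffer. Reactions, begun by adding 50 nM quenched peptide substrate spanning the BACE cleavage site, were incubated one hour at pH 4.2 in 0.05 M acetate with 100 uM genapol and 10% final DMSO.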

Aβ in lumbar CSF = conditions: Ph I clinical trial; cited from earlier work
[4] = people brought in after termination of the Ph I dosing trial; cited from earlier work
[5] = system: pigment epithelium of the rat's eye; conditions: higher compound dose given for three months; cited from earlier work
[6] = Homo sapiens, HEK293, average IC50, HEK cells

T1 sequence (P07339 65-412, species assumed): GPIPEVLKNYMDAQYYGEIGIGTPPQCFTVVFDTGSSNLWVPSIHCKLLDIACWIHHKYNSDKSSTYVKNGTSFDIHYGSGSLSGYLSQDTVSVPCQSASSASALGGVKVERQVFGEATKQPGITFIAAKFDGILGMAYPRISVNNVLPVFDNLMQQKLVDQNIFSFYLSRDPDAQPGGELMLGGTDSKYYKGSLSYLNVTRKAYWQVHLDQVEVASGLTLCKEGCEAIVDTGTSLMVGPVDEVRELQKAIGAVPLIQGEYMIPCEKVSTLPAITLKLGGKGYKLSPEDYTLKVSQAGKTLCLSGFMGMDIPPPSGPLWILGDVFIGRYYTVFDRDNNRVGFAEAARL
Chain of Beta Secretase enzyme (BACE1) (P56817 46-501): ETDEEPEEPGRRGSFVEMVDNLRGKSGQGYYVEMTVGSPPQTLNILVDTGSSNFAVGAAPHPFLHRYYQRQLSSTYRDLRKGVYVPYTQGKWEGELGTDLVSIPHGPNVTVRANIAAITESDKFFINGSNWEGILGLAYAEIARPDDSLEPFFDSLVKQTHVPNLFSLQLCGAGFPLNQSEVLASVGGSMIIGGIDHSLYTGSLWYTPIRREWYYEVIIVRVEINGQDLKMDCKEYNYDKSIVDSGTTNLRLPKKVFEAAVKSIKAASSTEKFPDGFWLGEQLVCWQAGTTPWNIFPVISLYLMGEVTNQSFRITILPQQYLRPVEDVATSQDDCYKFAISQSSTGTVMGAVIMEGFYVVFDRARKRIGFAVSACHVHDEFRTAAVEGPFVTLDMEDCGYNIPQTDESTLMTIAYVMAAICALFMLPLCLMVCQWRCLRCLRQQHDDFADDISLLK

Compound	IC50 (Cathepsin D (Cat D))	IC50 ([1]; average IC50, cell assay)	IC50 ([3]; average IC50, enzyme assay)	also measured
C[C@@]1(c2cc(-c3cncnc3)c(F)cc2F)CCSC(N)=N1 [LY2811376, (S)-4-(2,4-difluoro-5-pyrimidin-5-yl-phenyl)-4-methyl-5,6-dihydro-4H-[1,3]thiazin-2-ylamine]	–	–	–	safety and tolerability in healthy volunteers (Aβ in lumbar CSF): safe and well tolerated
C[C@@]1(c2cc(-c3cncnc3)c(F)cc2F)CCSC(N)=N1 [LY 2811376]	–	–	–	eye assessments of Ph I subjects [4]: did not show any abnormalities; rat toxicology finding [5]: damaged the pigment epithelium of the rat's eye
N-(3-((4aR,7aR)-3-amino-2,2-dimethyl-1,1-dioxido-7,7a-dihydro-2H-furo[3,4-b][1,4]thiazin-4a(5H)-yl)-4-fluorophenyl)-5-(difluoromethoxy)-3-methyl-2-pyridinecarboxamide, N-(3-((4aS,7aS)-3-amino-2,2-dimethyl-1,1-dioxido-7,7a-dihydro-2H-furo[3,4-b][1,4]thiazin-4a(5H)-yl)-4-fluorophenyl)-5-(difluoromethoxy)-3-methyl-2-pyridinecarboxamide [Example 413]	111000 nM	–	–	IC50 [1]: 10.3 nM; IC50 [3]: 2.65 nM
N-(3-((4aR,7aS)-3-amino-2,2-dimethyl-1,1-dioxido-7,7a-dihydro-2H-furo[3,4-b][1,4]thiazin-4a(5H)-yl)-4-fluorophenyl)-3-chloro-1,7-naphthyridin-8-amine, N-(3-((4aS,7aR)-3-amino-2,2-dimethyl-1,1-dioxido-7,7a-dihydro-2H-furo[3,4-b][1,4]thiazin-4a(5H)-yl)-4-fluorophenyl)-3-chloro-1,7-naphthyridin-8-amine [Example 429]	131000 nM	157 nM	4.6 nM	–
N-(3-((4aR,7aS)-3-amino-2,2-dimethyl-1,1-dioxido-7,7a-dihydro-2H-furo[3,4-b][1,4]thiazin-4a(5H)-yl)-4-fluorophenyl)-5-chloro-2-pyridinecarboxamide, N-(3-((4aS,7aR)-3-amino-2,2-dimethyl-1,1-dioxido-7,7a-dihydro-2H-furo[3,4-b][1,4]thiazin-4a(5H)-yl)-4-fluorophenyl)-5-chloro-2-pyridinecarboxamide [Example 426]	170000 nM	13.6 nM	1.5 nM	–
N-(3-((4aR,7aS)-3-amino-2,2-dimethyl-1,1-dioxido-7,7a-dihydro-2H-furo[3,4-b][1,4]thiazin-4a(5H)-yl)-4-fluorophenyl)-5-chloro-3-methyl-2-pyridinecarboxamide, N-(3-((4aS,7aR)-3-amino-2,2-dimethyl-1,1-dioxido-7,7a-dihydro-2H-furo[3,4-b][1,4]thiazin-4a(5H)-yl)-4-fluorophenyl)-5-chloro-3-methyl-2-pyridinecarboxamide [Example 427]	220000 nM	33 nM	1 nM	–

Now from value to compound, other results behind:

IC50 (Cathepsin D (Cat D))	IC50 ([1]; average IC50, cell assay)	IC50 ([3]; average IC50, enzyme assay)	Compound	also measured
144000 nM	–	–	COc1cnc(C(=O)Nc2ccc(F)c([C@]34COC[C@H]3S(=O)(=O)C(C)(C)C(N)=N4)c2)c(C)c1 [Example 430, N-(3-((4aS,7aS)-3-amino-2,2-dimethyl-1,1-dioxido-7,7a-dihydro-2H-furo[3,4-b][1,4]thiazin-4a(5H)-yl)-4-fluorophenyl)-5-methoxy-3-methyl-2-pyridinecarboxamide]	IC50 ([1]; Homo sapiens, HEK293, average IC50, cell assay): 11.7 nM; % reduction of rat CSF levels at 10pmk ([2]; rat CSF): 31%; % reduction of rat brain levels at 10mpk ([2]; rat brain): 1%
812000 nM	–	–	COc1ccc(C(=O)Nc2ccc(F)c([C@]3(CF)CS(=O)(=O)C(C)(C)C(N)=N3)c2)nc1 [Example 457, N-(3-((3S)-5-amino-3-(fluoromethyl)-6,6-dimethyl-1,1-dioxido-3,6-dihydro-2H-1,4-thiazin-3-yl)-4-fluorophenyl)-5-methoxy-2-pyridinecarboxamide]	IC50 [1, 6]: 12.9 nM; IC50 ([3]; average IC50): 0.65 nM
499000 nM	–	–	COCc1cc(Cl)cnc1C(=O)Nc1ccc(F)c([C@]2(CF)CS(=O)(=O)C(C)(C)C(N)=N2)c1 [Example 458, N-(3-((3S)-5-amino-3-(fluoromethyl)-6,6-dimethyl-1,1-dioxido-3,6-dihydro-2H-1,4-thiazin-3-yl)-4-fluorophenyl)-5-chloro-3-(methoxymethyl)-2-pyridinecarboxamide]	IC50 [1, 6]: 23.9 nM; IC50 ([3]; average IC50): 0.9 nM
> 400000 nM	–	–	CC1[C@@](C)(c2cc(Br)ccc2F)N=C(N)[C@](C)(F)S1(=O)=O (stereo partly drawn) [Example 459, (2R,5R)-5-(5-bromo-2-fluorophenyl)-2-fluoro-2,5,6-trimethyl-5,6-dihydro-2H-1,4-thiazin-3-amine 1,1-dioxide]	IC50 [1, 6]: 5470 nM; IC50 ([3]; average IC50): 2300 nM
309000 nM	37.3 nM	9.71 nM	N-(3-((4aR,7aS)-3-amino-2,2-dimethyl-1,1-dioxido-7,7a-dihydro-2H-furo[3,4-b][1,4]thiazin-4a(5H)-yl)-4-fluorophenyl)-5-methoxy-3-methyl-2-pyridinecarboxamide, N-(3-((4aS,7aR)-3-amino-2,2-dimethyl-1,1-dioxido-7,7a-dihydro-2H-furo[3,4-b][1,4]thiazin-4a(5H)-yl)-4-fluorophenyl)-5-methoxy-3-methyl-2-pyridinecarboxamide [Example 428]	–
363000 nM	77.9 nM	1.31 nM	N-(3-((7R)-9-amino-7-(fluoromethyl)-5,5-dioxido-5-thia-8-azaspiro[3.5]non-8-en-7-yl)-4-fluorophenyl)-3-chloro-1,7-naphthyridin-8-amine, N-(3-((7S)-9-amino-7-(fluoromethyl)-5,5-dioxido-5-thia-8-azaspiro[3.5]non-8-en-7-yl)-4-fluorophenyl)-3-chloro-1,7-naphthyridin-8-amine [Example 243]	–
170000 nM	–	–	N-(3-((7R)-9-amino-7-(fluoromethyl)-5,5-dioxido-5-thia-8-azaspiro[3.5]non-8-en-7-yl)-4-fluorophenyl)-5-(difluoromethoxy)-3-methyl-2-pyridinecarboxamide, N-(3-((7S)-9-amino-7-(fluoromethyl)-5,5-dioxido-5-thia-8-azaspiro[3.5]non-8-en-7-yl)-4-fluorophenyl)-5-(difluoromethoxy)-3-methyl-2-pyridinecarboxamide [Example 410]	IC50 [1]: 11.9 nM; IC50 [3]: 2.3 nM
